Tested on: NOMO1
Assay: cell viability relative to DMSO control; higher = less cytotoxic
Settings: 48 h
Summary of the method: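 NOMO1, SEM and P12-Ichikawa leukemia cells spent at least four passages adapting to each medium before use. They were seeded at 500 cells/well (NOMO1, SEM) or 1000 cells/well (P12-Ichikawa) in 5 μl in 1536-well plates and pin-dosed with library compounds in DMSO at 11 threefold steps from 47 μM down to 0.79 nM. After 48 h at 37°C, CellTiter-Glo One luminescence was read. Viability is reported as a percentage of the DMSO wells on each plate, with cell-free wells as background.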

[1] = HPLM + 10% dialyzed FBS, 0.000781 µM
[2] = HPLM + 10% dialyzed FBS, 0.00234 µM
[3] = HPLM + 10% dialyzed FBS, 0.00702 µM
[4] = HPLM + 10% dialyzed FBS, 0.0211 µM
[5] = HPLM + 10% dialyzed FBS, 0.0632 µM
[6] = HPLM + 10% dialyzed FBS, 0.19 µM
[7] = HPLM + 10% dialyzed FBS, 0.569 µM
[8] = HPLM + 10% dialyzed FBS, 1.71 µM
[9] = HPLM + 10% dialyzed FBS, 5.12 µM
[10] = HPLM + 10% dialyzed FBS, 15.4 µM
[11] = HPLM + 10% dialyzed FBS, 46.1 µM
[12] = RPMI 5 mM glucose + 10% FBS, 0.000781 µM
[13] = RPMI 5 mM glucose + 10% FBS, 0.00234 µM
[14] = RPMI 5 mM glucose + 10% FBS, 0.00702 µM
[15] = RPMI 5 mM glucose + 10% FBS, 0.0211 µM
[16] = RPMI 5 mM glucose + 10% FBS, 0.0632 µM
[17] = RPMI 5 mM glucose + 10% FBS, 0.19 µM
[18] = RPMI 5 mM glucose + 10% FBS, 0.569 µM
[19] = RPMI 5 mM glucose + 10% FBS, 1.71 µM
[20] = RPMI 5 mM glucose + 10% FBS, 5.12 µM
[21] = RPMI 5 mM glucose + 10% FBS, 15.4 µM
[22] = RPMI 5 mM glucose + 10% FBS, 46.1 µM
[23] = RPMI 5 mM glucose + 10% dialyzed FBS, 0.000781 µM
[24] = RPMI 5 mM glucose + 10% dialyzed FBS, 0.00234 µM
[25] = RPMI 5 mM glucose + 10% dialyzed FBS, 0.00702 µM
[26] = RPMI 5 mM glucose + 10% dialyzed FBS, 0.0211 µM
[27] = RPMI 5 mM glucose + 10% dialyzed FBS, 0.0632 µM
[28] = RPMI 5 mM glucose + 10% dialyzed FBS, 0.19 µM
[29] = RPMI 5 mM glucose + 10% dialyzed FBS, 0.569 µM
[30] = RPMI 5 mM glucose + 10% dialyzed FBS, 1.71 µM
[31] = RPMI 5 mM glucose + 10% dialyzed FBS, 5.12 µM
[32] = RPMI 5 mM glucose + 10% dialyzed FBS, 15.4 µM
[33] = RPMI 5 mM glucose + 10% dialyzed FBS, 46.1 µM

SMILES	cell viability [1]	cell viability [2]	cell viability [3]	cell viability [4]	cell viability [5]	cell viability [6]	cell viability [7]	cell viability [8]	cell viability [9]	cell viability [10]	cell viability [11]	cell viability [12]	cell viability [13]	cell viability [14]	cell viability [15]	cell viability [16]	cell viability [17]	cell viability [18]	cell viability [19]	cell viability [20]	cell viability [21]	cell viability [22]	cell viability [23]	cell viability [24]	cell viability [25]	cell viability [26]	cell viability [27]	cell viability [28]	cell viability [29]	cell viability [30]	cell viability [31]	cell viability [32]	cell viability [33]
FC(F)(F)c1ccc(/C=C/c2nc(COc3ccc(CCCCn4ccnn4)cc3)co2)cc1	127%	125%	122%	127%	120%	104%	107%	79.4%	27.7%	25.2%	22.6%	125%	122%	128%	137%	134%	127%	126%	92.1%	20.5%	15.3%	13.1%	122%	143%	122%	124%	124%	116%	130%	128%	27.8%	24.1%	19.9%
C[C@]\12CC[C@H](O)CC1=C/CC3C2CC[C@@]\4(C)C3C\C=C4[N]5C=NC6=C5C=CC=C6 (some centres undefined)	95.5%	110%	99.5%	96.7%	105%	115%	117%	102%	97%	116%	110%	96.4%	99%	100%	103%	112%	109%	117%	101%	99.2%	125%	100%	84.8%	101%	97.3%	124%	110%	122%	117%	113%	104%	105%	112%
CN1[C@@H]2CC(OC(=O)[C@@H](CO)c3ccccc3)C[C@H]1[C@H]1O[C@H]12 (some centres undefined)	94.8%	120%	108%	124%	103%	104%	106%	95.8%	93.8%	92.3%	121%	87.3%	86.7%	101%	85.5%	90.3%	85.2%	86.3%	93.4%	82.9%	81.4%	81.3%	80.4%	95.5%	98.8%	88.5%	102%	103%	90.9%	99.4%	88.2%	95.4%	89.8%
NC1(Cc2ccc(Cl)cc2)CCN(c2ncnc3[nH]ccc23)CC1	97.7%	93.7%	89.9%	106%	92.9%	105%	116%	81.9%	82%	45.6%	29.4%	106%	102%	88.3%	101%	97.4%	90.5%	85.5%	90.6%	74.5%	32.6%	16.3%	102%	92.8%	94.7%	90.2%	102%	84.9%	87.8%	80.9%	67.3%	33%	17.7%
CCC[C@H](NC(=O)/C(C#N)=C/c1cccc(Br)n1)c1ccccc1												110%	123%	116%	111%	111%	107%	103%	108%	104%	111%	4.55%	109%	114%	122%	115%	109%	117%	120%	116%	108%	99.9%	4.54%
CC(C)(C)c1cc(NC(=O)Nc2ccc(-c3cn4c(n3)sc3cc(OCCN5CCOCC5)ccc34)cc2)no1	92.8%	93.9%	90.5%	104%	101%	102%	87.3%	99.7%	110%	123%	96.5%	76.8%	76%	85.1%	88.3%	82%	79.2%	81.4%	87%	81.4%	81.8%	88.5%	85.1%	94.8%	101%	82.3%	90.5%	90.8%	90.8%	93.1%	92.9%	92.1%	89.7%
COc1cccc2cc(-c3nc(C4CCC(C(=O)O)CC4)n4ncnc(N)c34)[nH]c12 (centres undefined)	116%	124%	102%	119%	99.8%	94.7%	68.2%	38.7%	34.8%	37.3%	47.1%	109%	113%	107%	106%	105%	105%	98.4%	55.3%	30%	26.3%	19.9%	105%	104%	108%	115%	102%	105%	88.1%	53.6%	41.7%	26.9%	27.8%
CCN(CC)CC#CCOC(=O)C(O)(c1ccccc1)C1CCCCC1 (centres undefined)												133%	115%	122%	113%	138%	127%	117%	137%	120%	125%	117%	128%	121%	120%	124%	140%	123%	140%	132%	135%	134%	120%
OC[C@H]1O[C@@H](O[C@@H]2[C@@H](CO)O[C@](O)(CO)[C@H]2O)[C@H](O)[C@@H](O)[C@H]1O	108%	110%	110%	113%	99.5%	92.2%	103%	95.1%	102%	47.7%	78.1%	91.1%	95.4%	111%	109%	105%	100%	105%	97.3%	88.1%	71.9%	86.2%	91.4%	86.6%	103%	97.5%	95.7%	101%	100%	98.7%	92.5%	68.1%	80.6%
Cc1c(CN2CCN(C(=O)[C@H](C)O)CC2)sc2c(N3CCOCC3)nc(-c3cnc(N)nc3)nc12	77.8%	100%	89.8%	90.4%	86.5%	71.5%	53.9%	46.9%	33.7%	39.4%	40.5%	79.2%	93.6%	93.9%	88.6%	91.5%	86.9%	69.1%	58.2%	52.5%	47.9%	43.9%	79.7%	94%	81.2%	74.5%	69.5%	73.7%	59.1%	45.4%	47.8%	44.6%	39.3%
CN1[C@@H]2CC[C@H]1CC(OC(=O)c1c[nH]c3ccccc13)C2 (some centres undefined)												115%	125%	120%	114%	129%	112%	106%	117%	124%	114%	99.3%	119%	127%	119%	107%	109%	115%	113%	118%	119%	104%	94.9%
CC1(C)CCC[C@]2(C)[C@H]3CC(=O)O[C@]3(C)CC[C@@H]12	126%	107%	113%	114%	118%	121%	123%	112%	126%	120%	98.6%	119%	111%	118%	121%	107%	112%	129%	98%	111%	110%	81.2%	122%	112%	125%	120%	125%	106%	110%	105%	106%	101%	92.5%
CCCCCOC(=O)NC\1=N\C(=O)N(\C=C1F)[C@@H]2O[C@H](C)[C@@H](O)[C@H]2O	114%	111%	97%	99.7%	95.6%	106%	92.9%	98.7%	93.8%	72.8%	81.4%	90.8%	92.6%	97.9%	90.8%	90.7%	102%	91.2%	87.9%	86.4%	85%	83.3%	99.2%	105%	106%	105%	103%	99.4%	101%	109%	92%	73.8%	92.5%
C\C1=C\C(=O)OC2=C1C=CC(=C2)O	119%	129%	122%	133%	120%	130%	120%	118%	113%	110%	104%	116%	122%	117%	111%	119%	122%	105%	120%	117%	123%	106%	117%	118%	120%	118%	110%	108%	104%	102%	109%	113%	90.7%
